In US9975874B2, “Factor XIa inhibitors” (Merck Sharp & Dohme Corp., priority 2014, dated 2018) one finds IC50 data, which are given here for twelve molecules.

Each structure is given as a SMILES string.

Assay [1] deals with purified human Factor XIa (Homo sapiens (Human), UniProt P03951). Briefly: Factor XIa Assay. The assay is classed as biochemical. Particulars: substrate Z-Gly-Pro-Arg-AFC 100 μM, 40 pM enzyme, pH 7.4; read-out: FXIa IC50. On the procedure: The effectiveness of a compound of the present invention as an inhibitor of Coagulation Factor XIa can be determined using a relevant purified serine protease, and an appropriate synthetic substrate. The rate of hydrolysis of the chromogenic or fluorogenic substrate by the relevant serine protease was measured both in the absence and presence of compounds of the present invention. Assays were conducted at room temperature or at 37° C. […] A decrease in the rate of fluorescence change in the presence of inhibitor is indicative of enzyme inhibition. Such methods are known to one skilled in the art. […]
Sequence of purified human Factor XIa (P03951 388-625): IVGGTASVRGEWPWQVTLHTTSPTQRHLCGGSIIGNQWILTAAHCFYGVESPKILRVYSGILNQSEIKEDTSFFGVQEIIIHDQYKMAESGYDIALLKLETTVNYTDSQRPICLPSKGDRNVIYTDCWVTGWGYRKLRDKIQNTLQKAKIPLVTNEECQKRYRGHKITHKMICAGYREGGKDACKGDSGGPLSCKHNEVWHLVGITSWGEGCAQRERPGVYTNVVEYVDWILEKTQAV
Sequence of purified human Factor XIa (P03951 19-387 partner): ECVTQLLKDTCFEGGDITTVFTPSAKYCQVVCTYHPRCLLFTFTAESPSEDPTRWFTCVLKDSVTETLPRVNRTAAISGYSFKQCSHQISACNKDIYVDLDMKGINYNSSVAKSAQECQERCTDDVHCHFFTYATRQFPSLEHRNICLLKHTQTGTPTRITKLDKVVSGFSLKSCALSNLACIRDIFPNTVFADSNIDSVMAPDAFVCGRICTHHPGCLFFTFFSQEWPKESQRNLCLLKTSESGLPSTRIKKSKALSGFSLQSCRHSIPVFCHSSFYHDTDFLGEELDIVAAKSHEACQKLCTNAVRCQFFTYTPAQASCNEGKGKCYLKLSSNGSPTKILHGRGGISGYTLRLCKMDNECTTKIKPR
Factor XIa determinations were made in 50 mM HEPES buffer at pH 7.4 containing 150 mM NaCl, 5 mM CaCl2, and 0.1% PEG 8000 (polyethylene glycol; JT Baker or Fisher Scientific). Determinations were made using purified human Factor XIa at a final concentration of 40 pM (Sekisui Diagnostics) and the synthetic substrate, Z-Gly-Pro-Arg-AFC, TFA salt (Sigma #C0980) at a concentration of 100 μM.
Times required to achieve equilibration between enzyme and inhibitor were determined in control experiments. Initial velocities of product formation in the absence (Vo) or presence of inhibitor (Vi) were measured. Assuming competitive inhibition, and that unity is negligible compared Km/[S], [I]/e, and [I]/e (where [S], [I], and e respectively represent the total concentrations, of substrate, inhibitor and enzyme), the equilibrium constant (Ki) for dissociation of the inhibitor from the enzyme can be obtained from the dependence of Vo/Vi on [I] shown in the following equation.

In assay [2] the target is purified Human plasma kallikrein (Homo sapiens (Human), UniProt P03952). In words: Kallikrein Assay. As to conditions: Plasma kallikrein; substrate Acetyl-K-P-R-AFC, 0.5 nM enzyme, pH 7.4; read-out: PK IC50. The assay is classed as biochemical. On the procedure:
The effectiveness of a compound of the present invention as an inhibitor of Kallikrein can be determined using a relevant purified serine protease, and an appropriate synthetic substrate. The rate of hydrolysis of the chromogenic or fluorogenic substrate by the relevant serine protease was measured both in the absence and presence of compounds of the present invention. Assays were conducted at room temperature or at 37° C. […] A decrease in the rate of fluorescence change in the presence of inhibitor is indicative of enzyme inhibition. Such methods are known to one skilled in the art. The results of this assay are expressed as the inhibitory constant, Ki.
Kallikrein determinations were made in 50 mM HEPES buffer at pH 7.4 containing 150 mM NaCl, 5 mM CaCl2, and 0.1% PEG 8000 (polyethylene glycol; Fisher Scientific). Determinations were made using purified Human plasma kallikrein at a final concentration of 0.5 nM (Enzyme Research Laboratories) and the synthetic substrate, Acetyl-K-P-R-AFC (Sigma # C6608) at a concentration of […].
Times required to achieve equilibration between enzyme and inhibitor were determined in control experiments. The reactions were performed under linear progress curve conditions and fluorescence increase measured at 405 Ex/510 Em nm. […] IC50 was determined by inflection point from a four parameter logistic curve fit. Ki was calculated using the Cheng Prusoff equation, Ki=IC50/(1+([S]/Km)).

By IC50 is commonly meant the concentration that gives 50% inhibition.

Sequence of purified Human plasma kallikrein (P03952 391-638): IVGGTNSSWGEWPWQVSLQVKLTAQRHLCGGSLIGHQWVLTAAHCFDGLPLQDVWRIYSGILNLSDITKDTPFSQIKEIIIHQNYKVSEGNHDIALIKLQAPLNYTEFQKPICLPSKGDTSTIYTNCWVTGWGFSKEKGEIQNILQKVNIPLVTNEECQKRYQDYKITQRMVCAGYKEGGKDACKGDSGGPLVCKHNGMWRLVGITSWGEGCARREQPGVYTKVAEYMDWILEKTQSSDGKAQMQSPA
Sequence of purified Human plasma kallikrein (P03952 20-390 partner): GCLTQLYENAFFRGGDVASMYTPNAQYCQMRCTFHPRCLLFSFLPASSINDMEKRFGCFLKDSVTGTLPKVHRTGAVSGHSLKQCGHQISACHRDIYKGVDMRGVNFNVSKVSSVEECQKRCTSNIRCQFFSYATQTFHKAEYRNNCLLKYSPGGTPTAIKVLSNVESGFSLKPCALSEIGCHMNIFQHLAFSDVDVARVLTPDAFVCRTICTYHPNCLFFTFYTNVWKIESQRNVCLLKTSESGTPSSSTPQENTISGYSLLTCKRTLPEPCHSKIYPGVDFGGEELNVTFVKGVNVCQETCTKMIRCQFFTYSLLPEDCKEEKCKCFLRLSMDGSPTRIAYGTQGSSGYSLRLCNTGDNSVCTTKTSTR

Turning to `O=C(O)c1ccc(-c2cccc(C(Cc3ccccc3)c3ccc(-c4cc(Cl)ccc4-n4cnnn4)c[n+]3[O-])c2)cc1` (single isomer, unassigned) [Example 11], the IC50 in assay [1] was determined as 14 nM; in assay [2] it was 276 nM.
In the same order, the values of `O=C(O)c1cccc(-c2cccc([C@@H](Cc3ccccc3)c3ccc(-c4cc(Cl)ccc4-n4cnnn4)c[n+]3[O-])c2)c1` (stereo in doubt) [Example 8, 2-(1-(3′-carboxy-[1,1′-biphenyl]-3-yl)-2-phenylethyl)-5-(5-chloro-2-(1H-tetrazol-1-yl)phenyl)pyridine 1-oxide] are 41 nM and 6920 nM.
For the molecule `O=C(O)c1cccc(-c2cccc([C@H](Cc3ccccc3)c3ccc(-c4cc(Cl)ccc4-n4cnnn4)c[n+]3[O-])c2)c1` (stereo in doubt) [Example 9, 2-(1-(3′-carboxy-[1,1′-biphenyl]-3-yl)-2-phenylethyl)-5-(5-chloro-2-(1H-tetrazol-1-yl)phenyl)pyridine 1-oxide], the IC50 in assay [1] turned out to be 0.267 nM; in assay [2], 24.9 nM.
The matching figures for `COC(=O)Nc1ccc(-c2cccc([C@H](Cc3ccccc3)c3ccc(-c4cc(Cl)ccc4-n4cnnn4)c[n+]3[O-])c2)cc1` [Example 3, (S)-5-(5-Chloro-2-(1H-tetrazol-1-yl)phenyl)-2-(1-(4′-((methoxycarbonyl)amino)-[1,1′-biphenyl]-3-yl)-2-phenylethyl)pyridine 1-oxide]: 2.07 nM and 34.3 nM.
In the same order, the values of `CS(=O)(=O)c1ccc(-c2cccc(C(Cc3ccccc3)c3ccc(-c4cc(Cl)ccc4-n4cnnn4)c[n+]3[O-])c2)cc1` (stereo not drawn) [Example 4] are 38.9 nM and 4660 nM.
On to `CS(=O)(=O)c1ccc(-c2cccc([C@H](Cc3ccccc3)c3ccc(-c4cc(Cl)ccc4-n4cnnn4)c[n+]3[O-])c2)cc1` [Example 6], for which the IC50 in assay [1] is 31.1 nM; in assay [2] it was 1110 nM.
Take `O=C(O)c1cccc(-c2cc(F)cc([C@H](Cc3ccccc3)c3ccc(-c4cc(Cl)ccc4-n4cnnn4)c[n+]3[O-])c2)c1` [Example 14]: the IC50 in assay [1] was 0.301 nM; in assay [2], 19.1 nM.
In the same order, the values of `NC(=O)c1cccc(-c2cc(F)cc([C@H](Cc3ccccc3)c3ccc(-c4cc(Cl)ccc4-n4cnnn4)c[n+]3[O-])c2)c1` [Example 16] are 3.34 nM and 178 nM.
With `O=C(O)c1cccc(-c2cccc(C(CC3CC3)c3ccc(-c4cc(Cl)ccc4-n4cnnn4)c[n+]3[O-])c2)c1` (stereo not drawn) [Example 18], the values for the IC50 in assay [1] and in assay [2] were 12 nM and 250 nM, respectively.
The matching figures for `CCNC(=O)N1CCC(c2cccc([C@H](Cc3ccccc3)c3ccc(-c4cc(Cl)ccc4-n4cnnn4)c[n+]3[O-])c2)CC1` [Example 28, 4-{3-[(1S)-1-{5-[5-chloro-2-(1H-tetrazol-1-yl)phenyl]-1-oxidopyridin-2-yl}-2-phenylethyl]phenyl}-N-ethylpiperidine-1-carboxamide]: 7.25 nM and 271 nM.
As for `O=C(C1CC1(F)F)N1CCC(c2cccc([C@H](Cc3ccccc3)c3ccc(-c4cc(Cl)ccc4-n4cnnn4)c[n+]3[O-])c2)CC1` (stereo partly drawn) [Example 30, 5-[5-chloro-2-(1H-tetrazol-1-yl)phenyl]-2-[(1S)-1-(3-{1-[(2,2-difluoro-cyclopropyl)carbonyl]piperidin-4-yl}phenyl)-2-phenylethyl] pyridine 1-oxide], the IC50 worked out at 28.6 nM in assay [1] and 820 nM in assay [2].
With `O=C(C1CCCO1)N1CCC(c2cccc([C@H](Cc3ccccc3)c3ccc(-c4cc(Cl)ccc4-n4cnnn4)c[n+]3[O-])c2)CC1` (stereo partly drawn) [Example 31, 5-[5-chloro-2-(1H-tetrazol-1-yl)phenyl]-2-[(1S)-2-phenyl-1-{3-[1-(tetrahydrofuran-2-ylcarbonyl)piperidin-4-yl]phenyl}ethyl] pyridine 1-oxide], the results for the IC50 in assay [1] and in assay [2] were 10.8 nM and 336 nM, respectively.
